We go through one substance from US20240050513A1, “COMPOSITION FOR PREVENTING, AMELIORATING, OR TREATING DISEASE CAUSED BY PROTEIN NITRATION […] WITH TERMINAL TYROSINE AS EFFECTIVE COMPONENT” (INDUSTRY-ACADEMIC COOPERATION FOUNDATION GYEONGSANG …, priority 2021, published 2024).

Assay [1] concerns glutamine synthetase (GS). Description: GS activity and GS tyrosine nitration in PFC, chronic immobilization stress model. Conditions: stress group. The format is in vivo, C57BL/6 mice. Here is the method:
Using the prefrontal cortex (PFC) lysate samples from mice obtained after the completion of chronic immobilization stress, GS activity and GS expression level were measured by following the method described above.
Furthermore, the level of tyrosine nitration within GS was measured by using immunoprecipitation (IP)-WB. The immunoprecipitation analysis of tyrosine-nitrated GS was performed using an anti-nitrotyrosine antibody (ab61392, Abcam) and Protein A/G PLUS-Agarose (Santa Cruz) according to the manufacturer's protocol.

Assay [2] concerns chronic immobilization stress C57BL/6 mice. Description: Cognitive function (ORT/OLT) in chronic immobilization stress model. The format is in vivo. The following applies: stress group, peptide-supplemented diet vs normal diet. The protocol:
To analyze the long-term memory capacity of animals following the peptide diet of the present invention, both the object recognition test (ORT) and object location recognition test (OLT) were conducted (FIG. 1). The tests consisted of three phases: habituation, familiarization, and test. During the habituation phase, the animals were acclimated to the testing apparatus for 10 minutes per day over two days. On the third day at the familiarization phase, the animals were allowed to explore two identical objects for 10 minutes. Subsequently, on the fourth day at the test phase, one of the objects was replaced with a novel object, and the animals were allowed to explore for 10 minutes, with result recorded during the initial 5 minutes was used as test data. The object recognition test (ORT) index was calculated using the following formula.
Discrimination index=(N−F)/(N+F) • N: Time spent for exploring new object • F: Time spent for exploring familiar object
After 24 hours of performing the ORT, the location of the familiar object was changed, and the animals were allowed to explore for 5 minutes. During the total exploration time, the ratio of time spent exploring the object with a changed location was calculated to determine the object location recognition test (OLT) index.
A total of 28 seven-week-old male C57BL/6 mice were divided into two groups: a control group and a stress group. […]

Assay [3] relates to ischemic stroke Mongolian gerbils. Nature of the assay: Neuronal cell death in ischemic stroke model (cell count, immunohistochemical staining). The format is in vivo. Here is the method: Three-month-old male Mongolian gerbils were induced with general anesthesia using 3% isoflurane and the anesthesia was maintained with 2.5% isoflurane gas. After sterilizing the neck area, a midline incision was made to expose both common carotid arteries, and microvessel clip was used to block the blood flow for 5 minutes, inducing cerebral ischemia to simulate a stroke. During the application of the microvessel clip, the body temperature was maintained at 37.0±0.5° C., and animals undergoing sham operation were used as the control group.
After inducing ischemia, the animal was, under reperfusion, intraperitoneally administered with YQ peptide at a dose of 200 mg/kg, three times every 24 hours. On the fourth day, the animal was sacrificed, and brain tissues were collected to measure the number of dead neuronal cell.
Immunohistochemical staining was carried out to examine changes in neuronal cells and microglial cells and also a change in related factors in the hippocampus of an ischemic brain injury animal model. Specifically, after inducing ischemia, YQ peptide was administered intraperitoneally three times every 24 hours at a dose of 200 mg/kg under reperfusion. A control group was administered with a vehicle (i.e., 0.9% saline) instead of the peptide. On the 4th day, the animal was sacrificed, and brain tissue was collected and fixed with 4% paraformaldehyde at 4° C. Subsequently, the tissue was added to sucrose solutions of increasing concentrations (i.e., 10%, 20%, and 30%), frozen using liquid nitrogen, and sectioned into continuous slice specimens with a thickness of 30 μm. The specimens were stored in a cryoprotective solution at −20° C. The brain tissue specimen was rinsed three times for 10 minutes each with 0.01 M PBS and treated with 0.3% H2O2 for 30 minutes to eliminate endogenous peroxidase present in the tissue. To prevent any nonspecific immune reaction, the specimen was incubated for 30 minutes with 5% normal serum corresponding to each antibody. […]

Regarding tyrosine-glutamine [YQ], the “tyrosine nitration level of GS” value in assay [1] (IP-WB, peptide diet vs normal diet) was “statistically significant decrease”. In addition, the GS activity result in assay [1] (peptide diet (330 mg/kg) vs normal diet) is “statistically significant increase”. Moreover, the cognitive function result in assay [2] is listed as “enhanced cognitive function”. In assay [3] (200 mg/kg i.p. three times every 24 hours, fourth day), the “number of neuronal cells” value was “increase”. Besides, the “cells found to survive compared to the sham operation group” value in assay [3] (hippocampal CA1 region, 200 mg/kg i.p. three times every 24 hours, 4th day) is on record as “approximately 60.7%”. In addition, the “morphological changes in glial cells” value in assay [3] (immunohistochemical staining, 200 mg/kg i.p. three times) is listed as “minimal morphological changes”.
